In brackets after ≈: the same amount, converted by molar mass. Where two headings read alike, the source gives them in different places. Blank lines part the entries; values can stand above or below the compound they belong to.
Key:
HIV-1(IIIB) [1] = experiment: HIV-1(IIIB)-induced cytopathicity in CEM cell cultures; assay type: cell-based
Text: (§1) Viruses. The origins of MSV, HIV type 1 (HIV-1) (strain IIIB and Ba-L), HIV-2 (strain ROD) and FIV (strain Petaluma) have been described previously (Balzarini et al., AIDS 5: 21-28, 1991; De Clercq et al., Proc. Soc. Exp. Biol. Med. 137:590-594, 1971; Egberink et al., Proc. Natl. Acad. Sci. 87:3087-3091, 1990; Hartmann et al., Antiviral Chem. Chemother. 5:13-19, 1994; Popovic et al., Science 224:497-500, 1984). HIV-1(IIIB) and HIV-2(ROD) stocks were obtained from supernatants of virus-infected MT-4 cell cultures. HIV-1BaL was expanded in human primary M/M, whose supernatants were collected, filtered and stored at −80° C. before use. Characteristics of viral stocks used for this study were 2.1×10^8 HIV-RNA genomes/ml (corresponding to 35 ng of p24 antigen) and 5,000 tissue culture infectious doses 50% per ml (TCID50/ml) as assessed by virus titration in other primary M/M cultures. The isolation and characterization of the clinical HIV-1 isolates L1S, L6S and L6S/PMEA has been reported (Thormar et al., Proc. Natl. Acad. Sci. USA 93:3283-3287, 1995; Van Laethem et al., AIDS 15:553-561, 2001). […] HIV-1/L6S/PMEA is the clinical isolate HIV-1/L6S that has been isolated after culturing the virus for 11 passages in the presence of increasing concentrations of PMEA (adefovir).
(§2) In vitro antiviral assays. The activity against HIV-1- and HIV-2-induced cytopathicity was examined in MT-4 cell cultures at day 5 post infection and based on the determination of cell viability by trypan blue dye staining or in CEM cell cultures at day 4 to 5 post infection and based on the microscopical examination of virus-induced giant cell formation. HIV-1 and HIV-2 were added at 100 CCID50 to the cell cultures.

MSV [2] = experiment: Antiviral activity, MSV, Table 1a; assay type: cell-based
CMV AD-169 = experiment: Antiviral activity, CMV AD-169, Table 1a; assay type: cell-based
VZV TK + YS = experiment: Antiviral activity, VZV TK+ YS, Table 1a; assay type: cell-based
CMV Davis = experiment: Antiviral activity, CMV Davis, Table 1a; assay type: cell-based
VZV TK − 07/1 = experiment: Antiviral activity, VZV TK- 07/1, Table 1a; assay type: cell-based
HSV-1 TK- VMW 1837 = experiment: Antiviral activity, HSV-1 TK- VMW 1837, Table 1a; assay type: cell-based
HSV-1 (KOS) = experiment: Antiviral activity, HSV-1 (KOS), Table 1a; assay type: cell-based
HSV-2 (G) = experiment: Antiviral activity, HSV-2 (G), Table 1a; assay type: cell-based
VZV TK + OKA = experiment: Antiviral activity, VZV TK+ OKA, Table 1a; assay type: cell-based
VZV TK − YS/R = experiment: Antiviral activity, VZV TK- YS/R, Table 1a; assay type: cell-based
CEM cells = experiment: Inhibition of CEM cell growth (cytostatic activity); assay type: cell-based
Method: (§3) Cytostatic and antimetabolic effect of acyclic nucleoside phosphonates in vitro. The assays to examine the inhibition of CEM cell growth by the test compounds have been described previously (Balzarini et al., AIDS 5:21-28, 1991). The 50% cytostatic concentration (CC50) was defined as the concentration of compound that reduced the number of living cells by 50% . To measure MT-4 cell toxicity of the test compounds, 5×10^4 MT-4 cells were incubated in the wells of 96-well microplates in the presence or absence of different concentrations of the test compounds for 5 days at 37° C. The CC50 was then calculated from the number of living cells counted under a microscope by the trypan blue exclusion method.

HIV-2 = experiment: Antiviral activity, HIV-2, Table 1a; assay type: cell-based
HIV-1(IIIB) [3] = experiment: HIV-1(IIIB)-induced cytopathicity in MT-4 cell cultures; assay type: cell-based; settings: Human immunodeficiency virus 1, IIIB, MT4; Table 2
Text: as §1, §2

HIV-2(ROD) [4] = experiment: HIV-2(ROD)-induced cytopathicity in CEM cell cultures; assay type: cell-based; settings: Human immunodeficiency virus 2, CCRF-CEM, read-out: EC50 HIV-2 (ROD) (CEM)
Text: as §1, §2

[5] = Alteration of C3H cell morphology (minimal inhibitory concentration); assay type: cell-based, murine; settings: mouse, C3H/3T3 embryo fibroblast cells; microscopically visible alteration of cell morphology; > means no visible toxicity at the indicated concentration; read-out: CC50 C3H (minimal inhibitory concentration)
HIV-2(ROD) [6] = experiment: HIV-2(ROD)-induced cytopathicity in MT-4 cell cultures; assay type: cell-based; settings: Human immunodeficiency virus 2, MT4, read-out: EC50 HIV-2 (ROD) (MT-4)
Text: as §1, §2

[7] = MT-4 cell toxicity (trypan blue exclusion); assay type: cell-based; settings: human, MT-4 cells; reduction of cell viability; Table 2
Method: as §3

MSV [8] = experiment: MSV-induced transformation of murine embryo fibroblast C3H/3T3 cell cultures; assay type: cell-based; settings: Mus musculus
Method: The inhibitory effect of the test compounds on MSV-induced transformation of murine embryo fibroblast C3H/3T3 cell cultures was examined microscopically at day 6 post infection. MSV was added at 75 focus-forming units to the cell cultures. The detailed procedures for the antiretroviral evaluations has been described in detail before (Balzarini et al., AIDS 5:21-28, 1991; Balzarini et al., Antimicrob. Agents Chemother. 37:332-338, 1993; De Clercq et al., Proc. Soc. Exp. Biol. Med. 137:590-594, 1971).

[9] = Inhibition of CEM cell growth (cytostatic activity); assay type: cell-based; settings: human, CEM cells
Method: as §3

Compound: Nc1nc(OCCOCP(=O)(O)O)cc(OCCOCP(=O)(O)O)n1 [Example 10, 2-Amino-4,6-bis[2-(phosphonomethoxy)ethoxy]pyrimidine]
- melting point: 108 °C

Compound: C[C@@H](COc1cc(N)nc(N)n1)OCP(=O)(O)O [Compound 10, 2,4-diamino-6-(S)-[2-(phosphonome-thoxy)propoxy]pyrimidine]
- EC50 HIV-1 (CEM) (HIV-1(IIIB) [1]; HIV-1(IIIB)-induced cytopathicity in CEM cell cultures, Table 1): 51 µg/mL (≈ 183 µM)
- Antiviral Activity EC50 MSV (MSV [2]): 6.1 µg/mL
- Antiviral Activity EC50 CMV AD-169 (CMV AD-169): >50 µg/mL
- Antiviral Activity EC50 VZV TK + YS (VZV TK + YS): >50 µg/mL
- Antiviral Activity EC50 CMV Davis (CMV Davis): >50 µg/mL
- Antiviral Activity EC50 VZV TK − 07/1 (VZV TK − 07/1): >50 µg/mL
- Antiviral Activity EC50 HIV-1 (HIV-1): 51 µg/mL
- Antiviral Activity EC50 HSV-1 TK- VMW 1837 (HSV-1 TK- VMW 1837): >80 µg/mL
- Antiviral Activity EC50 HSV-1 (KOS) (HSV-1 (KOS)): >80 µg/mL
- Antiviral Activity EC50 HSV-2 (G) (HSV-2 (G)): >80 µg/mL
- Antiviral Activity EC50 VZV TK + OKA (VZV TK + OKA): >50 µg/mL
- Antiviral Activity EC50 VZV TK − YS/R (VZV TK − YS/R): >50 µg/mL
- CC50 (CEM) (CEM cells; 50% cytostatic concentration, CEM cell proliferation, Table 1): >100 µg/mL
- Antiviral Activity EC50 HIV-2 (HIV-2): 33 µg/mL

- melting point: 218 °C
Compound: Nc1nc(N)c(Br)c(OCCOCP(=O)(O)O)n1 [5-bromo-derivative of 1, 2,4-Diamino-5-bromo-6-[2-(phosphonomethoxy)ethoxy]pyrimidine]
- Concentration at which active against HIV-1 in CEM cell cultures (HIV-1(IIIB) [1]): 2.5 µg/mL
- Cytotoxicity at 100 μg/mL (CEM cells; 100 μg/mL): not toxic

Compound: Nc1nc(O)cc(OCCOCP(=O)(O)O)n1 [Compound 4, 2-amino-4-hydroxy-6-[2-(phosphonomethoxy)ethoxy]pyrimidine]
- EC50 (HIV-1(IIIB) [1]; Human immunodeficiency virus 1, CCRF-CEM, HIV-1 (IIIB) in CEM, no addition, Table 3, read-out: EC50 as such): 1.4 ± 0.71 µg/mL (≈ 5.28 µM)
- EC50 (HIV-1(IIIB) [1]; Human immunodeficiency virus 1, CCRF-CEM, HIV-1 (IIIB) in CEM, Ade 100 μM, read-out: EC50 upon addition of Ade (100 μM)): 1.7 ± 1.2 µg/mL (≈ 6.41 µM)
- EC50 (HIV-1(IIIB) [1]; Human immunodeficiency virus 1, CCRF-CEM, HIV-1 (IIIB) in CEM, Ado 400 μM, read-out: EC50 upon addition of Ado (400 μM)): 1.4 ± 0.93 µg/mL (≈ 5.28 µM)
- EC50 (HIV-1(IIIB) [1]; Human immunodeficiency virus 1, CCRF-CEM, HIV-1 (IIIB) in CEM, Guo 10 μM, read-out: EC50 upon addition of Guo (10 μM)): 1.9 ± 0.92 µg/mL (≈ 7.17 µM)
- EC50 (HIV-1(IIIB) [1]; Human immunodeficiency virus 1, CCRF-CEM, HIV-1 (IIIB) in CEM, dCyd 1 mM, read-out: EC50 upon addition of dCyd (1 mM)): 2.4 ± 1.9 µg/mL (≈ 9.05 µM)
- EC50 (HIV-1(IIIB) [1]; Human immunodeficiency virus 1, CCRF-CEM, HIV-1 (IIIB) in CEM, dThd 10 μM, read-out: EC50 upon addition of dThd (10 μM)): 1 ± 0.3 µg/mL (≈ 3.77 µM)
- EC50 (HIV-1(IIIB) [1]; Human immunodeficiency virus 1, CCRF-CEM, HIV-1(IIIB)-induced cytopathicity in CEM cell cultures, Table 1, read-out: EC50 HIV-1 (CEM)): 2.2 µg/mL (≈ 8.3 µM)
- EC50 (HIV-1(IIIB) [1]; Human immunodeficiency virus 1, IIIB, CCRF-CEM, giant cell formation, mean ±SD of 2 to 4 experiments, Table 2, read-out: EC50 HIV-1 (IIIB) (CEM)): 1.4 ± 0.7 µg/mL (≈ 5.28 µM)
- EC50 (HIV-1(IIIB) [3]): 1.9 ± 0.4 µg/mL (≈ 7.17 µM)
- EC50 (HIV-2(ROD) [4]): 1.4 ± 1.2 µg/mL (≈ 5.28 µM)
- Minimal concentration causing visible cell morphology alteration [5]: ≥ 16 µg/mL
- EC50 (HIV-2(ROD) [6]): 2.1 µg/mL (≈ 7.92 µM)
- CC50 at 5 days [7]: 10 ± 2.2 µg/mL (≈ 37.7 µM)
- EC50 (MSV [8]; C3H, read-out: EC50 against MSV-induced C3H cell transformation): 0.05 to 0.15 µg/mL (≈ 0.189 to 0.566 µM)
- EC50 (MSV [8]; MSV-induced C3H cell transformation, Table 2, read-out: EC50 MSV (C3H)): 0.08 ± 0.03 µg/mL (≈ 0.302 µM)
- CC50 ([9]; 50% cytostatic concentration, CEM cell proliferation, Table 1, read-out: CC50 (CEM)): 2.5 µg/mL (≈ 9.43 µM)
- CC50 ([9]; inhibition of cell proliferation, Table 2, read-out: CC50 CEM): 2.5 ± 0.2 µg/mL (≈ 9.43 µM)
- CC50 ([9]; read-out: CC50 for CEM cells): 2.5 µg/mL (≈ 9.43 µM)

Source: patent US20050038058A1, “Novel compounds and methods for therapy” (Institute of Organic Chemistry and Biochemistry, priority 2001, published 2005)
